The results in this text go back to US10047051B2, “Substituted pyridines and method of use” (AbbVie S.á{acute over (.)}r.l., priority 2015, dated 2018).

One assay deals with T1, CFTR ΔF508 mutant (Homo sapiens, UniProt P13569, DEL508-508).
T1 construct: expressed in transfected cells; host or cells: CFBE41o- cells, adenoviral transduction
Description: YFP-halide influx assay for the CFTR-ΔF508 mutation (CFBE41o- cells). The format is cell-based. The note with it: forskolin 10.67 μM; for EC50: from (1−F/F0) vs concentration plot. Summed up: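 CFBE41o- cells transduced with adenovirus expressing CFTR ΔF508 and halide-sensitive YFP H148Q/I152L/F47L, then held 24 h at 27° C or with a CFTR modulator 24 h at 37° C. Iodide-induced quench recorded 2 min; EC50 from (1−F/F0) at 36 s versus concentration.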

In the next assay the target is T2, CFTR G551D mutant (Homo sapiens, UniProt P13569, G551D).
T2 construct: expressed in transfected cells; host or cells: HEK293 cells, reverse transfection with plasmids
Nature of the assay: YFP-halide influx assay for the CFTR-G551D mutation (HEK293 cells). The format is cell-based. The note with it: forskolin 10.67 μM. A digest of the protocol:
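HEK293 cells reverse-transfected with CFTR G551D and halide-sensitive YFP (H148Q/I152L/F47L), expressed 24 h at 37 °C. YFP fluorescence quenching recorded for 7 s after I⁻ injection. Response = 1−F/F0; EC50 derived from 1−F/F0 vs compound concentration.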

Molecules are shown by their SMILES.

T1 sequence (P13569 with tags, fused parts or gaps DEL508-508): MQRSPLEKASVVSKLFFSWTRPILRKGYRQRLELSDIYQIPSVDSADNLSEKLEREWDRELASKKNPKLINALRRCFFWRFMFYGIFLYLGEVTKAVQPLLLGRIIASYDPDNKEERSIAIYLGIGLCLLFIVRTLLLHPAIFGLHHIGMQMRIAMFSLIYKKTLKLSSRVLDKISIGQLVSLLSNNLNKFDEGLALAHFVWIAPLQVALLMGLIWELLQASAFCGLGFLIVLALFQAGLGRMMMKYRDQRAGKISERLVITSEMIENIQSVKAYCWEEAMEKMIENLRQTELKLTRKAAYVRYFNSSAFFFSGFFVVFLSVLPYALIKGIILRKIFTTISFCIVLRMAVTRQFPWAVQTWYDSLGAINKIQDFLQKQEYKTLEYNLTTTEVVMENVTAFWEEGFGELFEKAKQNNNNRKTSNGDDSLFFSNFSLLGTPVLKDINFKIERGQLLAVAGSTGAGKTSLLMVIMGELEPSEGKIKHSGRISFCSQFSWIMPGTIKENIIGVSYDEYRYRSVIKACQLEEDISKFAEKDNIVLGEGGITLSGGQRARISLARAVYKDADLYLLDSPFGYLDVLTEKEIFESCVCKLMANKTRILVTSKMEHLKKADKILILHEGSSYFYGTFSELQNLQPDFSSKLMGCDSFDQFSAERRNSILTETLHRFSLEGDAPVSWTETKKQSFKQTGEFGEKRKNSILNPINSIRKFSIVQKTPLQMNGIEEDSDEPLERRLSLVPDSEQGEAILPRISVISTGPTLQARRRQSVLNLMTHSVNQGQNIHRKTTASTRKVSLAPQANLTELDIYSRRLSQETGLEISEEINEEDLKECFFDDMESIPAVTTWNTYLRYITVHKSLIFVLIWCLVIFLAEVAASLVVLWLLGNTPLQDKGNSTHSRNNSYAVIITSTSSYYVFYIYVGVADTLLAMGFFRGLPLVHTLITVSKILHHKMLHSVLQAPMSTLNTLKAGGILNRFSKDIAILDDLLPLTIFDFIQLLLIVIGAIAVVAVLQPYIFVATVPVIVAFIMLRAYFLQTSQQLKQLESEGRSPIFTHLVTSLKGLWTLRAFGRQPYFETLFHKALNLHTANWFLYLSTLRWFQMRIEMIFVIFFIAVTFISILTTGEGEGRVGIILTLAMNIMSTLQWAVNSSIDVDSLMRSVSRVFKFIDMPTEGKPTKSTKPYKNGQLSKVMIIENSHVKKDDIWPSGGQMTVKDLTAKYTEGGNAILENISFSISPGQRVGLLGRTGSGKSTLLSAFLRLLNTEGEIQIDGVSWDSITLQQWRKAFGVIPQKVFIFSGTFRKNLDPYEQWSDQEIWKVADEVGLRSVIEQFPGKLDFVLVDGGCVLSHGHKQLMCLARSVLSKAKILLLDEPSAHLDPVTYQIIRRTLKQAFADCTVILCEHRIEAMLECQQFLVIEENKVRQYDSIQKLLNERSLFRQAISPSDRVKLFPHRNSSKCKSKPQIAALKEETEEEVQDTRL
T2 sequence (P13569 whole entry G551D): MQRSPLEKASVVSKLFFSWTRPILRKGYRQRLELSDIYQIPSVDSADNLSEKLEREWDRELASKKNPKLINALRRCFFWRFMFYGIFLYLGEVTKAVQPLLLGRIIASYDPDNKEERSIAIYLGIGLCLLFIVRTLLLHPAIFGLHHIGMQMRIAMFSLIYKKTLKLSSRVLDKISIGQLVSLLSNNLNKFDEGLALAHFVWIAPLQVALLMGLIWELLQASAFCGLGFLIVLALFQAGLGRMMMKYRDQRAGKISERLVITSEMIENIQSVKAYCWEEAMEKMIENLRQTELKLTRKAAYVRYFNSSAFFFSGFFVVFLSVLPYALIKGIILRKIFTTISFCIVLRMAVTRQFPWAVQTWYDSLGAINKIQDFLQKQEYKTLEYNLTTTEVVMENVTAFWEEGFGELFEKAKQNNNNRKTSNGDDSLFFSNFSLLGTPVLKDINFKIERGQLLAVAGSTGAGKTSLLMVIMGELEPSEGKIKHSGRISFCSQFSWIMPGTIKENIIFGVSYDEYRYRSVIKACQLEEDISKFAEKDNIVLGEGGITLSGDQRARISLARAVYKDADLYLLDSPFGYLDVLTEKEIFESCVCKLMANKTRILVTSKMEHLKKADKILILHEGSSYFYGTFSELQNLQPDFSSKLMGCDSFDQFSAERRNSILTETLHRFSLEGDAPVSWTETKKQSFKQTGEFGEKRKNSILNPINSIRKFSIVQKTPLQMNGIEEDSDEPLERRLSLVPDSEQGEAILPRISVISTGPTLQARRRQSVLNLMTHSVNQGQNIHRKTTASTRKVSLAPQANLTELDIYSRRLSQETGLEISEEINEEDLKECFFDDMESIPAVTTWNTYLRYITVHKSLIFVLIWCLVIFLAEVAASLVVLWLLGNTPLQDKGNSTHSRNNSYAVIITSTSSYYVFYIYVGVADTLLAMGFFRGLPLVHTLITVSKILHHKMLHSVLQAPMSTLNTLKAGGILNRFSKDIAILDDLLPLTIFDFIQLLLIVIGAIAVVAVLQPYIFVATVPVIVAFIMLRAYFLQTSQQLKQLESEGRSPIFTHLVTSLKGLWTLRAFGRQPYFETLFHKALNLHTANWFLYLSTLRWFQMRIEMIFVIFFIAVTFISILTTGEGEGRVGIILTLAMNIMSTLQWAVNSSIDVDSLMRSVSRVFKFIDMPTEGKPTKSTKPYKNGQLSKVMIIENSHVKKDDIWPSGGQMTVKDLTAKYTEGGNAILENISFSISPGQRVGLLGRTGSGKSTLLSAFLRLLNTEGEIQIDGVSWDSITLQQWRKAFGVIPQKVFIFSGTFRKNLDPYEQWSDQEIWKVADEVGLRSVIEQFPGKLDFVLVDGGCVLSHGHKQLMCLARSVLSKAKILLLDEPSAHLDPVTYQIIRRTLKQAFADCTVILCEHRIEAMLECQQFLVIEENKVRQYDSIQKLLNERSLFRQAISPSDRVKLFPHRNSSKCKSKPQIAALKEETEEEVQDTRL

`Nc1cc(S(=O)(=O)c2ccc(OC(F)(F)F)cc2)cnc1C(=O)NC1CCOC1` (centres unmarked) [Compound 127, 3-amino-N-(tetrahydrofuran-3-yl)-5-{[4-(trifluoromethoxy)phenyl]sulfonyl}pyridine-2-carboxamide]: at CFTR ΔF508 mutant, the “% Activation” value is 107.0% and a half-maximal effect (EC50) was put at 82.9 nM. At CFTR G551D mutant, the “% Activation” value turned out to be 61.2% and the EC50 was found to be 1880 nM.
The matching figures for `COCCCNC(=O)c1ncc(S(=O)(=O)c2ccc(OC(F)(F)F)cc2)cc1N` [Compound 123, 3-amino-N-(3-methoxypropyl)-5-{[4-(trifluoromethoxy)phenyl]sulfonyl}pyridine-2-carboxamide]: 98.5%, 86.2 nM, 60.5% and 880 nM.
For `Cc1ccc(S(=O)(=O)c2cnc(C(=O)NCC(O)C(F)(F)F)c(N)c2)cc1` (centres unmarked) [Compound 245, 3-amino-5-[(4-methylphenyl)sulfonyl]-N-(3,3,3-trifluoro-2-hydroxypropyl)pyridine-2-carboxamide] the same measures were 114.0%, 5.6 nM, 80.8% and 395 nM.
The matching figures for `Nc1cc(S(=O)(=O)c2ccc(C(F)(F)F)cc2)cnc1C(=O)NCC1(O)CC1` [Compound 228, 3-amino-N-[(1-hydroxycyclopropyl)methyl]-5-{[4-(trifluoromethyl)phenyl]sulfonyl}pyridine-2-carboxamide]: 123.3%, 8.5 nM, 62.6% and 1040 nM.
Turning to `Nc1cc(S(=O)(=O)c2ccc(OC(F)(F)F)cc2)cnc1C(=O)NCC1CC1` [Compound 155, 3-amino-N-(cyclopropylmethyl)-5-{[4-(trifluoromethoxy)phenyl]sulfonyl}pyridine-2-carboxamide], at CFTR ΔF508 mutant, the “% Activation” value was 108.0% and a half-maximal effect (EC50) was put at 81.2 nM. Besides, on CFTR G551D mutant, the “% Activation” value was 80.2% and the half-maximal effective concentration (EC50) turned out to be 987 nM.
For `Nc1cc(S(=O)(=O)c2ccc(OC(F)(F)F)cc2)cnc1C(=O)N[C@@H]1CCOc2ccccc21` [Compound 145, 3-amino-N-[(4R)-3,4-dihydro-2H-chromen-4-yl]-5-{[4-(trifluoromethoxy)phenyl]sulfonyl}pyridine-2-carboxamide] the same measures were 98.8%, 205 nM, 53.9% and 836 nM.
For `Nc1cc(S(=O)(=O)CC2CCCO2)cnc1C(=O)NCC(O)C(F)(F)F` (centres unmarked) [Compound 238, 3-amino-5-[(tetrahydrofuran-2-ylmethyl)sulfonyl]-N-(3,3,3-trifluoro-2-hydroxypropyl)pyridine-2-carboxamide] the same measures were 53.7%, 538 nM, 4.8% and greater than 10000 nM.
For the compound `COCCN(C1CC1)S(=O)(=O)c1cnc(C(=O)NCC(O)C(F)(F)F)c(N)c1` (centres unmarked) [Compound 108, 3-amino-5-[cyclopropyl(2-methoxyethyl)sulfamoyl]-N-(3,3,3-trifluoro-2-hydroxypropyl)pyridine-2-carboxamide], at CFTR ΔF508 mutant, the “% Activation” value was 110.0% and the concentration for a half-maximal effect (EC50) was determined as 18.2 nM. Moreover, at CFTR G551D mutant, the “% Activation” value is 56.8% and a half-maximal response (EC50) required 1700 nM.
The matching figures for `Nc1cc(S(=O)(=O)c2ccc(C(F)(F)F)cc2F)cnc1C(=O)NC[C@@H](O)C(F)(F)F` [Compound 107, 3-amino-5-{[2-fluoro-4-(trifluoromethyl)phenyl]sulfonyl}-N-[(2R)-3,3,3-trifluoro-2-hydroxypropyl]pyridine-2-carboxamide]: 103.0%, 1.5 nM, 81.7% and 164 nM.
In the case of `Nc1cc(S(=O)(=O)c2ccc(C(F)(F)F)cc2)cnc1C(=O)N1CC2(CCCOC2)C1` [Compound 295, (3-amino-5-{[4-(trifluoromethyl)phenyl]sulfonyl}pyridin-2-yl)(6-oxa-2-azaspiro[3.5]non-2-yl)methanone], at CFTR ΔF508 mutant, the “% Activation” value was 102.3% and a half-maximal effect (EC50) was put at 51.3 nM. Further, at CFTR G551D mutant, the “% Activation” value amounted to 92.7% and the EC50 came out at 1970 nM.
Take `CC(C)OCC(O)CNC(=O)c1ncc(S(=O)(=O)c2ccc(OC(F)(F)F)cc2)cc1N` (centres unmarked) [Compound 90, 3-amino-N-[2-hydroxy-3-(propan-2-yloxy)propyl]-5-{[4-(trifluoromethoxy)phenyl]sulfonyl}pyridine-2-carboxamide]: the entries for the “% Activation” value on CFTR ΔF508 mutant and on CFTR G551D mutant were 101.0% and 86.8%, respectively. Moreover, the values for the EC50 at CFTR ΔF508 mutant and at CFTR G551D mutant were 4 nM and 216 nM, respectively.
For `Nc1cc(S(=O)(=O)c2ccc(OC(F)(F)F)cc2)cnc1C(=O)NC1(C(F)(F)F)COC1` [Compound 214, 3-amino-5-{[4-(trifluoromethoxy)phenyl]sulfonyl}-N-[3-(trifluoromethyl)oxetan-3-yl]pyridine-2-carboxamide] the same measures were 60.5%, 39.1%, greater than 667 nM and greater than 10000 nM.
For `C[C@H](O)CNC(=O)c1ncc(S(=O)(=O)N2CCC[C@@H]2C)cc1N` [Compound 266, 3-amino-N-[(2S)-2-hydroxypropyl]-5-{[(2S)-2-methylpyrrolidin-1-yl]sulfonyl}pyridine-2-carboxamide] the same measures were 105.0%, 21.9%, 180 nM and greater than 10000 nM.
For `C[C@H](O)CNC(=O)c1nc(C2CC2)c(S(=O)(=O)c2ccc(F)cc2)cc1N` [Compound 274, 3-amino-6-cyclopropyl-5-[(4-fluorophenyl)sulfonyl]-N-[(2S)-2-hydroxypropyl]pyridine-2-carboxamide] the same measures were 111.0%, 69.5%, 6.9 nM and greater than 3330 nM.
In the case of `CC(C)[C@@H](CO)NC(=O)c1ncc(S(=O)(=O)c2ccc(OC(F)(F)F)cc2)cc1N` [Compound 148, 3-amino-N-[(2S)-1-hydroxy-3-methylbutan-2-yl]-5-{[4-(trifluoromethoxy)phenyl]sulfonyl}pyridine-2-carboxamide], on CFTR ΔF508 mutant, the “% Activation” value came out at 88.8% and a half-maximal response (EC50) required 42.5 nM. Moreover, at CFTR G551D mutant, the “% Activation” value is 60.2% and the half-maximal effective concentration (EC50) was 510 nM.
The matching figures for `Nc1cc(S(=O)(=O)c2ccc(C(F)(F)F)cc2F)cnc1C(=O)N1CC(C(F)(F)F)C1` [Compound 160, (3-amino-5-{[2-fluoro-4-(trifluoromethyl)phenyl]sulfonyl}pyridin-2-yl)[3-(trifluoromethyl)azetidin-1-yl]methanone]: 113.9%, 23.6 nM, 52.7% and 566 nM.
As to `Nc1cc(S(=O)(=O)c2ccc(C(F)(F)F)cc2)cnc1C(=O)NC[C@H](O)COCC(F)(F)F` [Compound 249, 3-amino-N-[(2S)-2-hydroxy-3-(2,2,2-trifluoroethoxy)propyl]-5-{[4-(trifluoromethyl)phenyl]sulfonyl}pyridine-2-carboxamide], on CFTR ΔF508 mutant, the “% Activation” value was determined as 96.2% and a half-maximal effect (EC50) was put at 3 nM. In addition, at CFTR G551D mutant, the “% Activation” value is listed as 83.7% and it took 172 nM to reach a half-maximal effect (EC50).
